Columns and labels:
mouse ATB^0,+ [1] = target: T1, mouse ATB^0,+ (Mus musculus, UniProt Q9JMA9); assay: cell-based
T1 sequence (Q9JMA9 1-638): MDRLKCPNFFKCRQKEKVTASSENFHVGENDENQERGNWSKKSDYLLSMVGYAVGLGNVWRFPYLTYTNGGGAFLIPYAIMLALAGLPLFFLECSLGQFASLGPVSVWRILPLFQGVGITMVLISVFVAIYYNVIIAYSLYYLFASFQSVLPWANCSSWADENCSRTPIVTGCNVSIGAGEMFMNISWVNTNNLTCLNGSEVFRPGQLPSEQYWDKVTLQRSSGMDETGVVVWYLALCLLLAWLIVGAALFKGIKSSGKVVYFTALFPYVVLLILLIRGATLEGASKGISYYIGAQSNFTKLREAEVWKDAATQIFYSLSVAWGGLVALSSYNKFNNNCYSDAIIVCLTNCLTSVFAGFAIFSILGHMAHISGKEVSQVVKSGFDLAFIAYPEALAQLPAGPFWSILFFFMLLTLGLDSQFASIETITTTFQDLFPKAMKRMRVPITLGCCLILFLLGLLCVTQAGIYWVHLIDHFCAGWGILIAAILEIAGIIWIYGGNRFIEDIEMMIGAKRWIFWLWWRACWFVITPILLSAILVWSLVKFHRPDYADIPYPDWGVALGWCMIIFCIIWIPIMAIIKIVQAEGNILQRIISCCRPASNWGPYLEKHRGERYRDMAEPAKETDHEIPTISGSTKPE

ATB^0 = target: T2, ATB^0 (Homo sapiens, UniProt Q15758); assay: cell-based
T2 sequence (Q15758 1-541): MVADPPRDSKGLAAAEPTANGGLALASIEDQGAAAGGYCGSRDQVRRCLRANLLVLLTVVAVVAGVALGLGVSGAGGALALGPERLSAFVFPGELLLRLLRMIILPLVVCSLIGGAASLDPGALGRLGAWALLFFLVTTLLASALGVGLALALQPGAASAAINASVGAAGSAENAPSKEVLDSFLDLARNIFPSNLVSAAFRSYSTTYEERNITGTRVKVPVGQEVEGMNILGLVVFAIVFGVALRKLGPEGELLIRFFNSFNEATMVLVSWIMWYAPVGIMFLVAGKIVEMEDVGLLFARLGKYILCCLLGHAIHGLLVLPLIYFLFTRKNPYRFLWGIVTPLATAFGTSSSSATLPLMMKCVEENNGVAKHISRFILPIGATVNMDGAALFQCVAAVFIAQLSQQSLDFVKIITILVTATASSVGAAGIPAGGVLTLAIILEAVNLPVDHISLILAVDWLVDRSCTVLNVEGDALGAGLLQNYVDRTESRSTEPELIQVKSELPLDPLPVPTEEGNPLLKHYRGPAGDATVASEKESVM

mouse ATB^0,+ [2] = target: T1, mouse ATB^0,+; details: L-amino acid 1 mM; NaCl pH 7.5
mouse ATB^0,+ [3] = target: T1, mouse ATB^0,+; details: from Ki values of Table 5
mouse ATB^0,+ [4] = target: T1, mouse ATB^0,+
mouse ATB^0,+ [5] = target: T1, mouse ATB^0,+; assay: Transport of radiolabeled substrates in HRPE cells expressing cloned mouse ATB0,+; type: cell-based; details: HRPE cells
ATB^0,+ mRNA = assay: ATB0,+ mRNA levels in mouse intestine after bacterial lipopolysaccharide injection (semi-quantitative RT-PCR); type: in vivo; details: 5 mg/kg i.p., 16 h; GAPDH as internal control
Description: Mice were injected i.p. with either saline (control) or bacterial lipopolysaccharide (5 mg/kg body wt). 16 h following injection, mice were killed and the various segments of the intestine (J, jejunum; L, ileum; C, colon) were collected for mRNA isolation. Five-week-old IL2^+/+ and IL2^−/− mice were killed and the various segments of the intestine were collected for mRNA isolation. Semiquantitative RT-PCR with low number of PCR cycles was carried out with primer pairs specific for mouse ATB^0,+, mouse glyceraldehyde-3-phosphate dehydrogenase (GAPDH), and mouse cyclophilin C (CypC) and the RT-PCR products were detected by Southern hybridization and the signals were quantified.
Since D-serine is an important modulator of glutamatergic neurotransmission and other D-amino acids may also have significant biological effects, it is of clinical relevance to know if there are any pathological conditions in which the intestinal absorption of D-amino acids may be altered. Therefore, the present inventors assessed the expression of ATB^0,+ in the intestinal tract under inflammatory conditions that are known to affect intestinal function. The present inventors used two different animal models for this purpose. […] The steady-state levels of ATB^0,+ mRNA were examined by a semi-quantitative RT-PCR in the jejunum, ileum, and colon. […]

[6] = substrate: NC(=N[N+](=O)[O-])Nc1cccc([C@H](N)C(=O)O)c1; assay: cells, lysate or membranes; details: pH 7.5
[7] = substrate: N=C(NCCC[C@H](N)C(=O)O)N[N+](=O)[O-]; assay: cells, lysate or membranes; details: other: oocytes, various concentrations; pH 7.5

For C[C@H](N)C(=O)O [Alanine], the Ki (mouse ATB^0,+ [1]) was 101 ± 14.2 µM, the Ki (ATB^0) was 22.5 ± 4.2 µM and the “Current in X. laevis oocytes (nA), L-isomer” value (mouse ATB^0,+ [2]) was 650 ± 86 nA.

For N[C@H](C(=O)O)c1ccccc1 [Phenylglycine, L-phenylglycine], the Ki (mouse ATB^0,+ [1]) was 5.3 ± 0.4 µM, the “affinity of ATB^0,+ relative to ATB^0” value (mouse ATB^0,+ [3]) was 4 times and the “affinity of ATB^0,+ relative to affinity for glycine” value (mouse ATB^0,+ [3]) was 19 times. For the same molecule, the “affinity of ATB^0,+ relative to affinity for phenylalanine” value (mouse ATB^0,+ [3]) was 13 times, the “affinity of ATB^0,+ relative to b^0,+AT” value (mouse ATB^0,+ [3]) was 53 times and the Ki (ATB^0) was 19 ± 5.5 µM. The inhibition (mouse ATB^0,+ [4]) was 100%, the “transport in ATB^0,+-expressing cells versus vector-transfected cells (in words)” value (mouse ATB^0,+ [5]; [14C]phenylglycine 10 μM or [8-3H]-valacyclovir 1.25 μM) was “three times higher” and the “cDNA-specific transport by ATB^0,+ relative to ATB^0 and mb^0,+AT” value (mouse ATB^0,+ [5]; [14C]phenylglycine 10 μM) was “ten times higher”.

In the case of lipopolysaccharide, the “increase of ATB^0,+ mRNA versus saline-treated mice, colon” value (ATB^0,+ mRNA) is reported as 2 fold and the “increase of ATB^0,+ mRNA versus saline-treated mice, ileum” value (ATB^0,+ mRNA) is reported as 7 fold.

B1: mouse ATB^0,+ (Mus musculus) (protein)
chain: MDRLKCPNFFKCRQKEKVTASSENFHVGENDENQERGNWSKKSDYLLSMVGYAVGLGNVWRFPYLTYTNGGGAFLIPYAIMLALAGLPLFFLECSLGQFASLGPVSVWRILPLFQGVGITMVLISVFVAIYYNVIIAYSLYYLFASFQSVLPWANCSSWADENCSRTPIVTGCNVSIGAGEMFMNISWVNTNNLTCLNGSEVFRPGQLPSEQYWDKVTLQRSSGMDETGVVVWYLALCLLLAWLIVGAALFKGIKSSGKVVYFTALFPYVVLLILLIRGATLEGASKGISYYIGAQSNFTKLREAEVWKDAATQIFYSLSVAWGGLVALSSYNKFNNNCYSDAIIVCLTNCLTSVFAGFAIFSILGHMAHISGKEVSQVVKSGFDLAFIAYPEALAQLPAGPFWSILFFFMLLTLGLDSQFASIETITTTFQDLFPKAMKRMRVPITLGCCLILFLLGLLCVTQAGIYWVHLIDHFCAGWGILIAAILEIAGIIWIYGGNRFIEDIEMMIGAKRWIFWLWWRACWFVITPILLSAILVWSLVKFHRPDYADIPYPDWGVALGWCMIIFCIIWIPIMAIIKIVQAEGNILQRIISCCRPASNWGPYLEKHRGERYRDMAEPAKETDHEIPTISGSTKPE
B1 gave a Km [6] of 106 ± 1 µM and a Km [7] of 348 ± 5 µM.

Source: patent US20040142317A1, “Use of amino acid transporter atbo,+ as a delivery system for drugs and prodrugs” (priority 2003, published 2004)
